This note sets out measurements from US6455528B1, “Piperazine compounds and medicinal use thereof” (Mitsubishi Pharma Corporation, priority 1997, dated 2002).

In turn, `CC(=O)NC1(c2ccc(CN3CCN(c4ccc(F)cc4)CC3)cc2)CC1` [Example 65, N-(1-(4-((4-(4-Fluorophenyl)piperazin-1-yl)methyl)phenyl)cyclopropyl)acetamide] showed a melting point of 124 to 126 °C. To `CC(=O)NC1(c2ccc(CN3CCN(c4ccc(F)cc4F)CC3)cc2)CC1` [Example 66, N-(1-(4-((4-(2,4-Difluorophenyl)-piperazin-1-yl)methyl)phenyl)cyclopropyl)acetamide] belongs 124 to 125 °C; to `CC(=O)NC1(c2ccc(C(C)N3CCN(c4ccc(F)cc4)CC3)cc2)CC1` (stereo not drawn) [Example 67, N-(1-(4-(1-(4-(4-Fluorophenyl)piperazin-1-yl)ethyl)phenyl)cyclopropyl)acetamide], 149 to 150 °C; to `CC(=O)NC(C)c1ccc(CN2CCN(c3ncccn3)CC2)cc1` (stereo not drawn) [Example 69, N-(1-(4-((4-(Pyrimidin-2-yl)piperazin-1-yl)methyl)phenyl)ethyl)acetamide], 124 to 126 °C. For `CC(=O)NC1(c2ccc(C(C)N3CCN(c4ncccn4)CC3)cc2)CC1` (stereo not drawn) [Example 70, N-(1-(4-(1-(4-(Pyrimidin-2-yl)piperazin-1-yl)ethyl)phenyl)cyclopropyl)acetamide], the melting point was 124 to 125 °C.

Turning to `CC(=O)NC1(c2ccc(CN3CCN(c4ncccn4)CC3)cc2)CC1` [Example 71, N-(1-(4-((4-(Pyrimidin-2-yl)piperazin-1-yl)methyl)phenyl)cyclopropyl)acetamide], the melting point lay within 145 to 146 °C. To `NCc1ccc(CN2CCN(c3ncccn3)CC2)cc1` [Example 74, 2-(4-(4-(Aminomethyl)phenylmethyl)-piperazin-1-yl)pyrimidine] belongs 70 to 72 °C; to `O=CNCc1ccc(CN2CCN(c3ncccn3)CC2)cc1` [Example 76, N-(4-((4-(Pyrimidin-2-yl)piperazin-1-yl)methyl)phenylmethyl)formamide], 97 to 98 °C.

Turning to `CC(=O)NCc1ccc(CN2CCN(c3nc(F)cc(F)n3)CC2)cc1` [Example 78, N-(4-((4-(4,6-Difluoropyrimidin-2-yl)piperazin-1-yl)methyl)phenylmethyl)acetamide], the melting point was in the range of 128 to 129 °C. `CC(=O)NCc1ccc(CN2CCN(c3cc(F)nc(F)n3)CC2)cc1` [Example 79, N-(4-((4-(2,6-Difluoropyrimidin-4-yl)piperazin-1-yl)methyl)phenylmethyl)acetamide] returned a melting point of 127 to 128 °C. To `CC(=O)NCc1ccc(CN2CCN(c3nc(Cl)cc(Cl)n3)CC2)cc1` [Example 80, N-(4-((4-(4,6-Dichloropyrimidin-2-yl)piperazin-1-yl)methyl)phenylmethyl)acetamide] belongs 139 to 140 °C. In turn, `CC(=O)NCc1ccc(CN2CCN(c3ccncc3)CC2)cc1` [Example 84, N-(4-((4-(Pyridin-4-yl)piperazin-1-yl)methyl)phenylmethyl)acetamide] returned a melting point of 164 to 166 °C. Then `CC(=O)NCc1ccc(CN2CCN(c3ccc(Cl)cn3)CC2)cc1` [Example 86, N-(4-((4-(5-Chloropyridin-2-yl)piperazin-1-yl)methyl)phenylmethyl)acetamide], with 155 to 156 °C; and `CC(=O)NCc1ccc(CN2CCN(c3cnccn3)CC2)cc1` [Example 87, N-(4-((4-(Pyrazin-2-yl)piperazin-1-yl)methyl)phenylmethyl)acetamide], with 118 to 119 °C. To `CC(=O)NCc1ccc(CN2CCN(c3ncc([N+](=O)[O-])s3)CC2)cc1` [Example 88, N-(4-((4-(5-Nitrothiazol-2-yl)piperazin-1-yl)methyl)phenylmethyl)acetamide] belongs 151 to 152 °C; to `CC(=O)NCc1ccc(CN2CCN(c3cc(Cl)nc(Cl)n3)CC2)cc1` [Example 89, N-(4-((4-(2,6-Dichloropyrimidin-4-yl)piperazin-1-yl)methyl)phenylmethyl)acetamide], 165 to 166 °C.

For `CC(=O)NCc1ccc(CN2CCN(c3nc(C)cc(C)n3)CC2)cc1` [Example 93, N-(4-((4-(4,6-Dimethylpyrimidin-2-yl)piperazin-1-yl)methyl)phenylmethyl)acetamide], the melting point lay within 127 to 128 °C. To `CC(=O)NC(C)(C)c1ccc(CN2CCN(c3nccs3)CC2)cc1` [Example 94, N-(1-Methyl-1-(4-((4-(thiazol-2-yl)piperazin-1-yl)methyl)phenyl)ethyl)acetamide] belongs 118 to 120 °C; to `CC(=O)NC(C)(C)c1ccc(CN2CCN(c3ncccn3)CC2)cc1` [Example 95, N-(1-Methyl-1-(4-((4-(pyrimidin-2-yl)piperazin-1-yl)methyl)phenyl)ethyl)acetamide], 137 to 138 °C. To `COc1cc(OC)nc(N2CCN(Cc3ccc(C(C)(C)NC(C)=O)cc3)CC2)n1` [Example 96, N-(1-(4-((4-(4,6-Dimethoxypyrimidin-2-yl)piperazin-1-yl)methyl)phenyl)-1-methylethyl)acetamide] belongs 199 to 202 °C. To `CC(=O)NCc1ccc(CN2CCN(c3ccnc(Cl)n3)CC2)cc1` [Example 97, N-(4-((4-(2-Chloropyrimidin-4-yl)piperazin-1-yl)methyl)phenylmethyl)acetamide] belongs 132 to 133 °C.

Compound `CC(=O)NCc1ccc(CN2CCN(c3nccc(Cl)n3)CC2)cc1` [Example 97, N-(4-((4-(4-chloropyrimidin-2-yl)piperazin-1-yl)methyl)phenylmethyl)acetamide] displayed a melting point of 122 to 124 °C. To `CC(=O)NCc1ccc(CN2CCN(c3nccc(N(C)C)n3)CC2)cc1` [Example 99, N-(4-((4-(4-(N,N-Dimethylamino)pyrimidin-2-yl)piperazin-1-yl)methyl)phenylmethyl)acetamide] belongs 152 to 155 °C; to `CC(=O)NC1(c2ccc(CN3CCN(c4nccs4)CC3)cc2)CC1` [Example 100, N-(1-(4-((4-(Thiazol-2-yl)piperazin-1-yl)methyl)phenyl)cyclopropyl)acetamide], 184 to 185 °C; to `CC(=O)NC(C)c1ccc(CN2CCN(c3nccs3)CC2)cc1` (stereo not drawn) [Example 101, N-(1-(4-((4-(Thiazol-2-yl)piperazin-1-yl)methyl)phenyl)ethyl)acetamide], 136 to 137 °C. To `CC(=O)NC(C)c1ccc(CN2CCN(c3cccc(F)n3)CC2)cc1` (stereo not drawn) [Example 102, N-(1-(4-((4-(6-Fluoropyridin-2-yl)piperazin-1-yl)methyl)phenyl)ethyl)acetamide] belongs 109 to 111 °C. Then `CC(=O)NC(C)c1ccc(CN2CCN(c3ccccn3)CC2)cc1` (stereo not drawn) [Example 104, N-(1-(4-((4-(Pyridin-2-yl)piperazin-1-yl)methyl)phenyl)ethyl)acetamide], with 120 to 121 °C. As for `CC(=O)NC(C)(C)c1ccc(CN2CCN(c3ccccn3)CC2)cc1` [Example 105, N-(1-Methyl-1-(4-((4-(pyridin-2-yl)piperazin-1-yl)methyl)phenyl)ethyl)acetamide], the melting point fell in the range of 129 to 130 °C.

For `COc1ccnc(N2CCN(Cc3ccc(C(C)(C)NC(C)=O)cc3)CC2)n1` [Example 106, N-(1-(4-((4-(4-Methoxypyrimidin-2-yl)piperazin-1-yl)methyl)phenyl)-1-methylethyl)acetamide], the melting point fell in the range of 160 to 162 °C.

`COc1ccnc(N2CCN(Cc3ccc(C(C)NC(C)=O)cc3)CC2)n1` (stereo not drawn) [Example 107, N-(1-(4-((4-(4-Methoxypyrimidin-2-yl)piperazin-1-yl)methyl)phenyl)ethyl)acetamide] gave a melting point of 113 to 115 °C.

On to `CCOc1cc(OCC)nc(N2CCN(Cc3ccc(CNC(C)=O)cc3)CC2)n1` [Example 108, N-(4-((4-(4,6-Diethoxypyrimidin-2-yl)piperazin-1-yl)methyl)phenylmethyl)acetamide], for which the melting point fell in the range of 119 to 120 °C. Then `CC(=O)NCc1ccc(CN2CCN(c3nc(N(C)C)cc(N(C)C)n3)CC2)cc1` [Example 109, N-(4-((4-(4,6-bis(Dimethylamino)-pyrimidin-2-yl)piperazin-1-yl)methyl)phenylmethyl)acetamide], with 189 to 190 °C (dec.); and `COc1cc(N(C)C)nc(N2CCN(Cc3ccc(CNC(C)=O)cc3)CC2)n1` [Example 110, N-(4-((4-(4-Dimethylamino-6-methoxypyrimidin-2-yl)piperazin-1-yl)methyl)phenylmethyl)acetamide], with 115 to 118 °C; and `CC(=O)NCc1ccc(CN2CCN(c3ncc(Br)s3)CC2)cc1` [Example 111, N-(4-((4-(5-Bromothiazol-2-yl)piperazin-1-yl)methyl)phenylmethyl)acetamide], with 160 to 163 °C.

On to `CC(=O)NCc1ccc(CN2CCN(c3ncc(Cl)s3)CC2)cc1` [Example 112, N-(4-((4-(5-Chlorothiazol-2-yl)piperazin-1-yl)methyl)phenylmethyl)acetamide], for which the melting point is 142 to 145 °C (dec.).

In turn, `CC(=O)NC1(c2ccc(CN3CCN(c4cccc(F)n4)CC3)cc2)CC1` [Example 117, N-(1-(4-((4-(6-Fluoropyridin-2-yl)piperazin-1-yl)methyl)phenyl)cyclopropyl)acetamide] came in with a melting point of 135 to 136 °C. To `CC(=O)NC1(c2ccc(CN3CCN(c4ccccn4)CC3)cc2)CC1` [Example 118, N-(1-(4-((4-(Pyridin-2-yl)piperazin-1-yl)methyl)phenyl)cyclopropyl)acetamide] belongs 145 to 147 °C. Then `CC(=O)N[C@@H](C)c1ccc(CN2CCN(c3ccc(F)cc3)CC2)cc1` [Example 121, (S)-N-(1-(4-((4-(4-Fluorophenyl)piperazin-1-yl)methyl)phenyl)ethyl)acetamide], with 114 to 115 °C. Then `CC(=O)N[C@H](C)c1ccc(CN2CCN(c3ccc(F)cc3)CC2)cc1` [Example 122, (R)-N-(1-(4-((4-(4-fluorophenyl)piperazin-1-yl)methyl)phenyl)ethyl)acetamide], with 114 to 115 °C.

What is called melting point is the temperature of the solid-liquid transition.
